# Measurements reported in patent publication US20260007758A1, “SO[…]-2 RECEPTOR (SST2R) NON-PEPTIDE DRUG CONJUGATES AND USES THEREOF” (Crinetics Pharmaceuticals, Inc., priority 2024, published 2026).
# How the values were obtained:
# Type in all cases: cell-based
# [1] = biological target: T1, SST2 (Homo sapiens, UniProt P30874); assay: PathHunter CHO-K1 SST2 Internalization Assay; details: PathHunter CHO-K1 SST2 cells; 90 min at 37 C; luminescence; read-out: Internalization EC50
# T1 construct: host or cells: PathHunter CHO-K1 SST2 cells
# How it was run: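 Four-parameter nonlinear fits of background-corrected luminescence (duplicate means) gave IC50s. NDCs were serially diluted 1:3 over 11 points from a 10 uM final top concentration and incubated 90 min at 37 C with human SST2 CHO-K1 cells plated 48 h earlier at 2500/well. Beta-Glo read-out developed 60 min at RT.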
# [2] = biological target: T2, human somatostatin receptor subtype 2 (Homo sapiens, UniProt P30874); assay: Functional assay for SSTR2 agonists (HTRF cAMP); details: CHO-K1 cells stably expressing human SST2; NKH477-stimulated cAMP; 20 min at 37 C; read-out: hSST2 cAMP Avg EC50
# T2 construct: expressed in transfected cells
# How it was run: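 Agonist activity read as fall in intracellular cAMP: HTRF 665/620 nm ratio regressed to a cAMP standard curve, EC50 fitted. Stable human SSTR2 CHO-K1 cells exposed 20 min at 37 °C to compound, final concentrations typically 0-10,000 nM.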
# [3] = tested on: NCI-H524 human small cell lung cancer cells; assay: H524 assay: inhibition of cell proliferation (CellTiter Glo); details: 2 h treatment, washout, additional 70 h incubation
# How it was run: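 Proliferation was measured by CellTiter Glo 70 h after a washout that followed a 2 h pulse of NDC. Doses were an 11-point, two-fold dilution series from 1 uM. IC50 was fitted with a four-parameter model to luminescence-based % inhibition relative to control cells.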
# T1 sequence (P30874 whole entry): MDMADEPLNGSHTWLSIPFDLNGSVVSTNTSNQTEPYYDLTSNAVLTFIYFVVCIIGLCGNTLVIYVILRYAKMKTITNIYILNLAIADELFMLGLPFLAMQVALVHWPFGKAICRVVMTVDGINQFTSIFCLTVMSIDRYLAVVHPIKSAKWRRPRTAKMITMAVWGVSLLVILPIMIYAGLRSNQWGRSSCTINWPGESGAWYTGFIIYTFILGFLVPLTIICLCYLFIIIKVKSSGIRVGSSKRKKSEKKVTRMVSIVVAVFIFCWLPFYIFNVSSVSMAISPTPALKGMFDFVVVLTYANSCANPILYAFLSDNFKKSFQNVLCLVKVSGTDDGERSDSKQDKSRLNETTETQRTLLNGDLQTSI
# T2 sequence (P30874 whole entry): as above
Structure (SMILES),EC50 [1] [nM],EC50 [2] [nM],EC50 [3] [nM]
CC[C@H](C)[C@@H]([C@@H](CC(=O)N1CCC[C@H]1[C@H](OC)[C@@H](C)C(=O)N[C@H](C)[C@@H](O)c1ccccc1)OC)N(C)C(=O)[C@@H](NC(=O)[C@H](C(C)C)N(C)C(=O)OCc1ccc(NC(=O)[C@H](CCCNC(N)=O)NC(=O)[C@@H](NC(=O)CCOCCC(=O)NCCNc2ncc(-c3cc(C)cc(F)c3)c(N3CCC(N)CC3)c2-c2nc3ccc(Cl)cc3[nH]2)C(C)C)cc1C(=O)N[C@@H](CCCCNC(=O)CCCCc1ccc(I)cc1)C(=O)O)C(C)C [Compound 246],1.5,0.1,74
CC[C@H](C)[C@@H]([C@@H](CC(=O)N1CCC[C@H]1[C@H](OC)[C@@H](C)C(=O)N[C@H](C)[C@@H](O)c1ccccc1)OC)N(C)C(=O)[C@@H](NC(=O)[C@H](C(C)C)N(C)C(=O)OCc1ccc(NC(=O)[C@H](CCCNC(N)=O)NC(=O)[C@@H](NC(=O)CCOCCC(=O)NCCNc2ncc(-c3cc(C)cc(F)c3)c(N3CCC(N)CC3)c2-c2nc3ccc(Cl)cc3[nH]2)C(C)C)cc1C(=O)N[C@@H](CCCNC(=O)CCCCc1ccc(I)cc1)C(=O)O)C(C)C [Compound 247],1.4,0.19,18
CC[C@H](C)[C@@H]([C@@H](CC(=O)N1CCCC1[C@H](OC)[C@@H](C)C(=O)N[C@H](C)[C@@H](O)c1ccccc1)OC)N(C)C(=O)[C@@H](NC(=O)[C@H](C(C)C)N(C)C(=O)OCc1ccc(O[C@@H]2O[C@H](C(=O)O)[C@@H](O)[C@H](O)[C@H]2O)c(NC(=O)[C@H](C)NC(=O)[C@@H](NC(=O)CCOCCC(=O)NCCNc2ncc(-c3cc(C)cc(F)c3)c(N3CCC(N)CC3)c2-c2nc3ccc(Cl)cc3[nH]2)C(C)C)c1)C(C)C (stereo partly drawn) [Compound 249],4.5,0.086,9.8
